Source: patent publication US20260200939A1, “MOLECULAR GLUE DEGRADER COMPOUNDS AND USES THEREOF” (Novartis AG, priority 2022, published 2026)

Tests used:
BRD4 short = target: T1, BRD4 short (Homo sapiens, UniProt O60885); assay: BRD4 (short) degradation assay, Western blotting; assay type: cell-based
T1 construct: endogenous in cells; host or cells: HEK293T
Procedure: (§1) C33A cells were purchased from American Type Culture Collection (ATCC) and were cultured in Dulbecco's Modified Eagle Medium (DMEM) containing 10% (v/v) fetal bovine serum (FBS) and maintained at 37° C. with 5% CO2. 22RV1 cells were purchased from the ATCC and were cultured in RPMI-1640 Medium containing 10% (v/v) FBS and maintained at 37° C. with 5% CO2. HEK293T cells were obtained from the UC Berkeley Cell Culture Facility and were cultured in DMEM containing 10% (v/v) FBS and maintained at 37° C. with 5% CO2. K562 cells were obtained from the UC Berkeley Cell Culture Facility and were cultured in Iscove's Modified Dulbecco's Medium (IMDM) containing 10% (v/v) FBS and maintained at 37° C. with 5% CO2. MV-4-11 cells were obtained from the ATCC and were cultured in IMDM containing 10% (v/v) FBS and maintained at 37° C. with 5% CO2. A549 cells were obtained from the ATCC and were cultured in F-12K Medium containing 10% (v/v) FBS and maintained at 37° C. with 5% CO2. Mino cells were obtained from the ATCC and were cultured in RPMI-1640 Medium containing 10% (v/v) FBS and maintained at 37° C. with 5% CO2. LNCaP cells were obtained from the ATCC and were cultured in RPMI-1640 Medium containing 10% (v/v) FBS and maintained at 37° C. with 5% CO2. Unless otherwise specified, all cell culture materials were purchased from Gibco. It is not known whether HEK293T cells are from male or female origin.
(§2) Cells were washed twice with cold PBS, scraped, and pelleted by centrifugation (700 g, 5 min, 4° C.). Pellets were resuspended in PBS, sonicated, clarified by centrifugation (12,000 g, 10 min, 4° C.), and lysate was transferred to new low-adhesion microcentrifuge tubes. Proteome concentrations were determined using BCA assay and lysate was diluted to appropriate working concentrations.
(§3) Proteins were resolved by SDS/PAGE and transferred to nitrocellulose membranes using the Trans-Blot Turbo transfer system (Bio-Rad). Membranes were blocked with 5% BSA in Tris-buffered saline containing Tween 20 (TBS-T) solution for 30 min at RT, washed in TBS-T, and probed with primary antibody diluted in recommended diluent per manufacturer overnight at 4° C. After 3 washes with TBS-T, the membranes were incubated in the dark with IR680- or IR800-conjugated secondary antibodies at 1:10,000 dilution in 5% BSA in TBS-T at RT for 1 h. After 3 additional washes with TBST, blots were visualized using an Odyssey Li-Cor fluorescent scanner. The membranes were stripped using ReBlot Plus Strong Antibody Stripping Solution (EMD Millipore) when additional primary antibody incubations were performed. Antibodies used in this study were CDK4 (Abcam ab108357), Vinculin (Abcam ab129002), GAPDH (Cell Signaling Technology 14C10), RNF126 (Santa Cruz Biotechnology sc-376005), BRD4 (Abcam ab128874), Beta Actin (Cell Signaling Technology 13E5), PDE5 (Abcam ab259945), AR-V7 (Abcam ab273500), c-Abl (Santa Cruz Biotechnology sc-23), SMARCA2 (Abcam ab240648), LRRK2 (Abcam ab133474), BTK (Cell Signaling Technology D3H5), Androgen Receptor (Abcam ab133273).

BRD4 long = target: T2, BRD4 long (Homo sapiens, UniProt O60885); assay: BRD4 (long) degradation assay, Western blotting; assay type: cell-based
T2 construct: endogenous in cells; host or cells: HEK293T
Procedure: as §1, §2, §3

[1] = second value of cell (long/short)
[2] = first value of cell (long/short)
[3] = first value of cell, range with lower bound in nM and upper bound in μM
[4] = second value of cell, range with lower bound in nM and upper bound in μM

DC50 (BRD4 short; [1]) [nM] | DC50 (BRD4 long; [2]) [nM] | DC50 (BRD4 long; [3]) [nM] | DC50 (BRD4 short; [4]) [nM] | Compound
< 10 | < 10 | – | – | COc1ccc(C(=O)/C=C/C(=O)N2CCN(C(=O)C[C@@H]3N=C(c4ccc(Cl)cc4)c4c(sc(C)c4C)-n4c(C)nnc43)C[C@H]2C)cc1 [Compound 217, (E)-1-((R)-4-(2-((S)-4-(4-chlorophenyl)-2,3,9-trimethyl-6H-thieno[3,2-f][1,2,4]triazolo[4,3-a][1,4]diazepin-6-yl)acetyl)-2-methylpiperazin-1-yl)-4-(4-methoxyphenyl)but-2-ene-1,4-dione]
< 10 | < 10 | – | – | COc1ccc(C(=O)/C=C/C(=O)N2CCN(C(=O)C[C@@H]3N=C(c4ccc(Cl)cc4)c4c(sc(C)c4C)-n4c(C)nnc43)[C@H](C)C2)cc1 [Compound 218, (E)-1-((R)-4-(2-((S)-4-(4-chlorophenyl)-2,3,9-trimethyl-6H-thieno[3,2-f][1,2,4]triazolo[4,3-a][1,4]diazepin-6-yl)acetyl)-3-methylpiperazin-1-yl)-4-(4-methoxyphenyl)but-2-ene-1,4-dione]
– | – | 100 to 1000 | 100 to 1000 | COc1ccc(C(=O)/C=C/C(=O)N2CCCN(C(=O)C[C@@H]3N=C(c4ccc(Cl)cc4)c4c(sc(C)c4C)-n4c(C)nnc43)CC2)cc1 [Compound 219, (S,E)-1-(4-(2-(4-(4-chlorophenyl)-2,3,9-trimethyl-6H-thieno[3,2-f][1,2,4]triazolo[4,3-a][1,4]diazepin-6-yl)acetyl)-1,4-diazepan-1-yl)-4-(4-methoxyphenyl)but-2-ene-1,4-dione]
10 to 100 | 10 to 100 | – | – | COc1ccc(C(=O)/C=C/C(=O)N2CCN(C(=O)C[C@@H]3N=C(c4ccc(Cl)cc4)c4c(sc(C)c4C)-n4c(C)nnc43)CC23CC3)cc1 [Compound 221, (S,E)-1-(7-(2-(4-(4-chlorophenyl)-2,3,9-trimethyl-6H-thieno[3,2-f][1,2,4]triazolo[4,3-a][1,4]diazepin-6-yl)acetyl)-4,7-diazaspiro[2.5]octan-4-yl)-4-(4-methoxyphenyl)but-2-ene-1,4-dione]
1 to 10 | 1 to 10 | – | – | COc1ccc(C(=O)/C=C/C(=O)N2CCC3(CCN(C(=O)C[C@@H]4N=C(c5ccc(Cl)cc5)c5c(sc(C)c5C)-n5c(C)nnc54)C3)C2)cc1 (stereo partly drawn) [Compound 224, (E)-1-(7-(2-((S)-4-(4-chlorophenyl)-2,3,9-trimethyl-6H-thieno[3,2-f][1,2,4]triazolo[4,3-a][1,4]diazepin-6-yl)acetyl)-2,7-diazaspiro[4.4]nonan-2-yl)-4-(4-methoxyphenyl)but-2-ene-1,4-dione]
10 to 100 | 10 to 100 | – | – | COc1ccc(C(=O)/C=C/C(=O)N2CC3(CCN(C(=O)C[C@@H]4N=C(c5ccc(Cl)cc5)c5c(sc(C)c5C)-n5c(C)nnc54)CC3)C2)cc1 [Compound 227, (S,E)-1-(7-(2-(4-(4-chlorophenyl)-2,3,9-trimethyl-6H-thieno[3,2-f][1,2,4]triazolo[4,3-a][1,4]diazepin-6-yl)acetyl)-2,7-diazaspiro[3.5]nonan-2-yl)-4-(4-methoxyphenyl)but-2-ene-1,4-dione]

More lines, now with the values behind:

Compound | DC50 (BRD4 short; [1]) [nM] | DC50 (BRD4 long; [2]) [nM] | DC50 (BRD4 long; [3]) [nM] | DC50 (BRD4 short; [4]) [nM]
Cc1sc2c(c1C)C(c1ccc(Cl)cc1)=N[C@@H](CC(=O)N[C@H]1C[C@H](NC(=O)/C=C/C(=O)c3ccc4c(c3)CCO4)C1)c1nnc(C)n1-2 [Compound 211, (E)-N-((1S,3r)-3-(2-((S)-4-(4-chlorophenyl)-2,3,9-trimethyl-6H-thieno[3,2-f][1,2,4]triazolo[4,3-a][1,4]diazepin-6-yl)acetamido)cyclobutyl)-4-(2,3-dihydrobenzofuran-5-yl)-4-oxobut-2-enamide] | 10 to 100 | 10 to 100 | – | –
COc1ccc(C(=O)/C=C/C(=O)N2C[C@H]3CN(C(=O)C[C@@H]4N=C(c5ccc(Cl)cc5)c5c(sc(C)c5C)-n5c(C)nnc54)[C@H]3C2)cc1 [Compound 212, (E)-1-((1S,5R)-6-(2-((S)-4-(4-chlorophenyl)-2,3,9-trimethyl-6H-thieno[3,2-f][1,2,4]triazolo[4,3-a][1,4]diazepin-6-yl)acetyl)-3,6-diazabicyclo[3.2.0]heptan-3-yl)-4-(4-methoxyphenyl)but-2-ene-1,4-dione] | 10 to 100 | – | 100 to 1000 | –
COc1ccc(C(=O)/C=C/C(=O)N2C[C@@H]3CN(C(=O)C[C@@H]4N=C(c5ccc(Cl)cc5)c5c(sc(C)c5C)-n5c(C)nnc54)[C@@H]3C2)cc1 [Compound 213, (E)-1-((1R,5S)-6-(2-((S)-4-(4-chlorophenyl)-2,3,9-trimethyl-6H-thieno[3,2-f][1,2,4]triazolo[4,3-a][1,4]diazepin-6-yl)acetyl)-3,6-diazabicyclo[3.2.0]heptan-3-yl)-4-(4-methoxyphenyl)but-2-ene-1,4-dione] | – | – | 100 to 1000 | 100 to 1000
COc1ccc(C(=O)/C=C/C(=O)N2CCN(C(=O)C[C@@H]3N=C(c4ccc(Cl)cc4)c4c(sc(C)c4C)-n4c(C)nnc43)C[C@@H]2C)cc1 [Compound 214, (E)-1-((S)-4-(2-((S)-4-(4-chlorophenyl)-2,3,9-trimethyl-6H-thieno[3,2-f][1,2,4]triazolo[4,3-a][1,4]diazepin-6-yl)acetyl)-2-methylpiperazin-1-yl)-4-(4-methoxyphenyl)but-2-ene-1,4-dione] | 10 to 100 | 10 to 100 | – | –
COc1ccc(C(=O)/C=C/C(=O)N2[C@H](C)CN(C(=O)C[C@@H]3N=C(c4ccc(Cl)cc4)c4c(sc(C)c4C)-n4c(C)nnc43)C[C@@H]2C)cc1 [Compound 215, (E)-1-((2S,6R)-4-(2-((S)-4-(4-chlorophenyl)-2,3,9-trimethyl-6H-thieno[3,2-f][1,2,4]triazolo[4,3-a][1,4]diazepin-6-yl)acetyl)-2,6-dimethylpiperazin-1-yl)-4-(4-methoxyphenyl)but-2-ene-1,4-dione] | 10 to 100 | < 10 | – | –
COc1ccc(C(=O)/C=C/C(=O)N2CCN(C(=O)C[C@@H]3N=C(c4ccc(Cl)cc4)c4c(sc(C)c4C)-n4c(C)nnc43)[C@@H](C)C2)cc1 [Compound 216, (E)-1-((S)-4-(2-((S)-4-(4-chlorophenyl)-2,3,9-trimethyl-6H-thieno[3,2-f][1,2,4]triazolo[4,3-a][1,4]diazepin-6-yl)acetyl)-3-methylpiperazin-1-yl)-4-(4-methoxyphenyl)but-2-ene-1,4-dione] | < 10 | < 10 | – | –
COc1ccc(C(=O)/C=C/C(=O)NC2CC(NC(=O)C[C@@H]3N=C(c4ccc(Cl)cc4)c4c(sc(C)c4C)-n4c(C)nnc43)C2)cc1 (some centres unmarked) [Compound 222] | 1 to 10 | 1 to 10 | – | –
COc1ccc(C(=O)/C=C/C(=O)N[C@H]2C[C@H](NC(=O)C[C@@H]3N=C(c4ccc(Cl)cc4)c4c(sc(C)c4C)-n4c(C)nnc43)C2)cc1 [Compound 223, (E)-N-((1S,3r)-3-(2-((S)-4-(4-chlorophenyl)-2,3,9-trimethyl-6H-thieno[3,2-f][1,2,4]triazolo[4,3-a][1,4]diazepin-6-yl)acetamido)cyclobutyl)-4-(4-methoxyphenyl)-4-oxobut-2-enamide] | 12 | 8 | – | –
COc1ccc(C(=O)/C=C/C(=O)N2CC3CCN(C(=O)C[C@@H]4N=C(c5ccc(Cl)cc5)c5c(sc(C)c5C)-n5c(C)nnc54)CC3C2)cc1 (stereo partly drawn) [Compound 225, (E)-1-(5-(2-((S)-4-(4-chlorophenyl)-2,3,9-trimethyl-6H-thieno[3,2-f][1,2,4]triazolo[4,3-a][1,4]diazepin-6-yl)acetyl)octahydro-2H-pyrrolo[3,4-c]pyridin-2-yl)-4-(4-methoxyphenyl)but-2-ene-1,4-dione] | – | < 10 | – | 100 to 1000
COc1ccc(C(=O)/C=C/C(=O)N2CC3CCC2CN3C(=O)C[C@@H]2N=C(c3ccc(Cl)cc3)c3c(sc(C)c3C)-n3c(C)nnc32)cc1 (stereo partly drawn) [Compound 226, (E)-1-(5-(2-((S)-4-(4-chlorophenyl)-2,3,9-trimethyl-6H-thieno[3,2-f][1,2,4]triazolo[4,3-a][1,4]diazepin-6-yl)acetyl)-2,5-diazabicyclo[2.2.2]octan-2-yl)-4-(4-methoxyphenyl)but-2-ene-1,4-dione] | 10 to 100 | 10 to 100 | – | –
